These results are taken from US8974827B2, “Nanoparticles comprising a non-ionizable cellulosic polymer and an amphiphilic non-ionizable block copolymer” (Bend Research, Inc., priority 2007, dated 2015).

≈ marks a conversion by molar mass, not a printed value.

For series [1] the following is noted: for Observations: pH 6.5. The method, then:
An appropriate PBS solution is an aqueous solution comprising 20 mM sodium phosphate (Na2HPO4), 47 mM potassium phosphate (KH2PO4), 87 mM NaCl, and 0.2 mM KCl, adjusted to pH 6.5 with NaOH. A test to determine whether the cellulosic polymer is insoluble may be performed as follows. The cellulosic polymer is initially present in bulk powder form with average particle sizes of greater than about 1 micron. The polymer alone is administered at a concentration of 0.2 mg/mL to the PBS solution and stirred for approximately 1 hour at room temperature. Next, a nylon 0.45 μm filter is weighed, and the solution is filtered. The filter is dried overnight at 40° C., and weighed the following morning.
First, 0.2 mg/mL of the polymer was added to a PBS solution consisting of 20 mM Na2HPO4, 47 mM KH2PO4, 87 mM NaCl, and 0.2 mM KCl, adjusted to pH 6.5 with NaOH. The polymer was stirred in the PBS solution for approximately 1 hour at room temperature. Next, the polymer solution was filtered through a nylon 0.45 μm filter that was weighed dry prior to filtration. The filter was dried overnight at 40° C., and weighed the following morning. The amount of soluble polymer was calculated from the amount of polymer added to form the polymer solution minus the amount of polymer remaining on the filter.

Series [2] is described as follows: Free drug analysis by centrifuge filtration (30,000-dalton cutoff) and HPLC. The following applies: 30,000-dalton cutoff centrifuge filter, HPLC. It counts as physicochemical. The method, then:
The nanoparticle suspension was centrifuged for 3 minutes at 13,000 rpm using a 30,000-dalton molecular-weight cutoff centrifuge tube filter, and 50 μL of the supernatant was added to 250 μL acetonitrile. The sample was assayed by HPLC.

Series [3] can be described thus: Solubility of drug in water. It counts as physicochemical. On the procedure: The utility of the invention increases as the water solubility of the drug decreases. […] The Tg of non-crystalline Drug 1 was determined by DSC analysis to be 55° C., while the Tm of crystalline Drug 1 was 170° C.
The next series can be described thus: Log P of drug. The format is physicochemical. Conditions: octanol/water. The text has this:
The first property of hydrophobic drugs is that they are extremely hydrophobic. Log P, defined as the base 10 logarithm of the ratio of the drug solubility in octanol to the drug solubility in water, is a widely accepted measure of hydrophobicity. By “extremely hydrophobic” is meant that the Log P value of the drug is at least 4.0, preferably at least 4.5, and most preferably at least 5.0. Log P may be measured experimentally or calculated using methods known in the art. When using a calculated value for Log P, the highest value calculated using any generally accepted method for calculating Log P is used. Calculated Log P values are often referred to by the calculation method, such as Clog P, Alog P, and Mlog P. The Log P may also be estimated using fragmentation methods, such as Crippen's fragmentation method (27 J. Chem. Inf. Comput. Sci. 21 (1987)); Viswanadhan's fragmentation method (29 J. Chem. Inf. Comput. Sci. 163 (1989)); or Broto's fragmentation method (19 Eur. J. Med. Chem.-Chim. Theor. 71 (1984).

Series [4] in a line: Solubility in model fasted duodenal (MFD) solution. It counts as physicochemical. The following applies: fassgf or other biorelevant, PBS containing 7.3 mM sodium taurocholic acid and 1.4 mM POPC.

ethylcellulose: in series [1], the “Amount Soluble at pH 6.5” value is less than 0.001 mg/mL and the Observations result is listed as “Fine particle suspension”.
Polyethylene glycol 8000 [PEG 8000]: in series [1], the “Soluble at pH 6.5” value came to 0.2 mg/mL and the Observations result is given as “Stabilizer dissolved”.
The term solubility denotes the concentration that dissolves in the medium under given conditions. In general, logP refers to a log measure of how a compound divides between an organic and an aqueous phase. A low value points to a more hydrophilic compound. Turning to `Cc1onc(-c2ccccc2)c1-c1ccc(S(N)(=O)=O)cc1` [Drug 1, 4-(5-methyl-3-phenyl-4-isoxazolyl)benzenesulfonamide], the “Free Drug” value in series [2] turned out to be 11 µg/mL. Also, the solubility in series [3] was approximately 10 µg/mL (≈ 31.8 µM). This molecule also came in with a lipophilicity (logP) in “Log P of drug” of approximately 3.
`CC[C@@H]1C[C@H](N(Cc2cc(C(F)(F)F)cc(C(F)(F)F)c2)C(C)=O)c2cc(C(F)(F)F)ccc2N1C(=O)OC(C)C` [Drug 2, [2R,4S] 4-[acetyl-(3,5-bis-trifluoromethyl-benzyl)-amino]-2-ethyl-6-trifluoromethyl-3,4-dihydro-2H-quinoline-1-carboxylic acid isopropyl ester] registered a solubility in series [3] of less than 1 µg/mL.
As for “poly(DL-lactide-co-glycolide 50:50) [PLGA]”, in series [1], the “Amount Soluble at pH 6.5” value is on record as 0.02 mg/mL and the Observations entry was “Fine particle suspension”.
As to `Cc1ccc(-c2cc(C(F)(F)F)nn2-c2ccc(S(N)(=O)=O)cc2)cc1` [Drug 3, celecoxib], in series [4], the solubility was approximately 40 µg/mL (≈ 105 µM).
